Results on one compound are retold here after patent publication US20250120929A1, “METHOD OF TREATING VIRUS-ASSOCIATED INFECTION USING ACETAMINOPHEN” (Sanbiozi Medical Science Inc., priority 2023, published 2025).

For data set [1], the system named is PRRS virus (PRRSV2). Put plainly: In vivo test of acetaminophen against PRRS-infected piglet. Also noted: unit not given here. From the text: (§1) In this embodiment, the weaned piglets were selected according to their PRRS syndromes. The three piglets were randomly selected in accordance with the professional experience on the syndromes of PRRS and the […] principles of animal test were followed as well. Three infected piglets were proceeded for preliminary test of the effectiveness of antiviral drugs of PRRS.
(§2) Three infected piglets raised in an isolated pen of the same pig house. Eighty milliliter acetaminophen therapy was given three times orally. Their blood samples were test weekly. Unfortunately, piglet 1 was unable to make over the first week. The other 2 piglets were able make over the process.

The subject of data set [2] is PRRS virus (PRRSV2). The data set is described as above. Also noted: key: −: Negative; ±: Virus was detected at very low concentrations.
Source text: as §1, §2

Data set [3] has as its system PRRS virus (PRRSV2). The data set is described as above. Conditions: 80 mL acetaminophen therapy three times orally.
Source text: as §1, §2

The test system of data set [4] is MHV-A59. Put plainly: In vivo test of acetaminophen against MHV-infected mice. More on the design: species or system C57BL/6 mice. The following applies: 0.25 mg/mL acetaminophen solution daily via oral gavage, MHV-A59 5×10^6 PFU/mouse i.p. The text has this: The present invention utilized the Mouse Hepatitis Virus (MHV) and swine virus PRRS as the infectious agents to evaluate the effectiveness of acetaminophen in vivo. We aimed to perform mouse and piglet survival experiments to completely assess acetaminophen against virus infection as a preclinical evaluation.
Intraperitoneal administration of MHV-A59 with high titer (5×10^6 PFU/mouse) on C57BL/6 mice to cause a high mortality rate. The MHV-infected mice were grouped as follows: 1. PBS vehicle control; 2. 0.25 mg/mL of acetaminophen solution treatment groups followed by treating acetaminophen daily via oral gavage. The viral administration cause loss of body weights on mice. […] These animal data strongly argue the potential application of acetaminophen in developing to an antiviral agent.

In data set [5] the test system is Mv1Lu cells. Put plainly: In vitro test for cytotoxicity of acetaminophen. The following applies: five days of incubation; concentration as high as 1000 μg/mL. The data set is classed as cell-based, mink.
Method: Specifically, mink lung epithelial cells, Mv1Lu, were treated with acetaminophen.

`CC(=O)Nc1ccc(O)cc1` [acetaminophen]: the “Concentration of PRRSV2 by RT-PCR” value in data set [1] (Piglet 1, test 1 (weekly blood sample)) is listed as 7.7 × 10 ^5; in data set [1] (Piglet 2, test 2 (weekly blood sample), weekly blood test 2), 1.3 × 10^3; in data set [1] (Piglet 3, test 1 (weekly blood sample), weekly blood test 1), 8.2 × 10 ^4; in data set [1] (Piglet 3, test 3 (weekly blood sample), weekly blood test 3), 2.9 × 10 ^2; in data set [2] (Piglet 2, test 1 (weekly blood sample), weekly blood test 1) it was “−”; in data set [2] (Piglet 2, test 3 (weekly blood sample), weekly blood test 3) it was “−”. In addition, the “Concentration of PRRSV2 by RT-PCR” value in data set [2] (Piglet 3, test 2 (weekly blood sample), weekly blood test 2) was “±”. Besides, the “virus concentration in the body” value in data set [3] (piglets 2 and 3) is listed as “decreased”. Moreover, the “survival of PRRS-infected piglets” value in data set [3] (three infected piglets) is “piglets 2 and piglet 3 survived”. In addition, the “body weight of MHV-infected mice” value in data set [4] (compared to MHV-only mice) was “significantly retained the mouse weights”. Moreover, in data set [4] (virus vehicle control 100% death rate), the “survival rate (printed as mortality rate) of MHV-infected mice” value came to 50%. The “cytotoxicity on Mv1Lu cells” value in data set [5] was “no significant cytotoxicity”.
